Measured values: the supplement of paper PMC8149375

How the values were obtained:
Details in all cases: treatment: drug alone; 5 days
[1] = test system: TK-10; assay: GI50, drug alone; higher = less potent
Description: (§1)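 Primary HTS: 8 RCC cell lines treated with 8 doses (up to 10 uM) of each library drug alone for 5 days; viability read by CellTiter-Glo and normalised to DMSO. GI50 was fitted with XLfit (4-parameter), AUC is the area under the dose-response curve, and minimum viability is the lowest fraction of DMSO viability across doses.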

[2] = test system: 769-P; assay: GI50, drug alone; higher = less potent
Description: as §1

[3] = test system: UO-31; assay: GI50, drug alone; higher = less potent
Description: as §1

[4] = test system: ACHN; assay: GI50, drug alone; higher = less potent
Description: as §1

[5] = test system: CAKI-1; assay: GI50, drug alone; higher = less potent
Description: as §1

[6] = test system: SN12C; assay: GI50, drug alone; higher = less potent
Description: as §1

[7] = test system: 786-O; assay: GI50, drug alone; higher = less potent
Description: as §1

[8] = test system: A498; assay: GI50, drug alone; higher = less potent
Description: as §1

[9] = test system: TK-10; assay: AUC of dose-response viability curve, drug alone (arbitrary (AUC of normalised viability)); higher = less growth inhibition
Description: as §1

[10] = test system: 769-P; assay: as above
Description: as §1

[11] = test system: UO-31; assay: as above
Description: as §1

[12] = test system: ACHN; assay: as above
Description: as §1

[13] = test system: CAKI-1; assay: as above
Description: as §1

[14] = test system: SN12C; assay: as above
Description: as §1

[15] = test system: 786-O; assay: as above
Description: as §1

[16] = test system: A498; assay: as above
Description: as §1

[17] = test system: TK-10; assay: minimum viability across doses, drug alone, relative to DMSO (fraction); higher = less growth inhibition
Description: as §1

[18] = test system: 769-P; assay: as above
Description: as §1

[19] = test system: UO-31; assay: as above
Description: as §1

[20] = test system: ACHN; assay: as above
Description: as §1

[21] = test system: CAKI-1; assay: as above
Description: as §1

[22] = test system: SN12C; assay: as above
Description: as §1

[23] = test system: 786-O; assay: as above
Description: as §1

[24] = test system: A498; assay: as above
Description: as §1

GI50, drug alone [4]	GI50, drug alone [7]	SMILES	GI50, drug alone [1]	GI50, drug alone [2]	GI50, drug alone [3]	GI50, drug alone [5]	GI50, drug alone [6]	GI50, drug alone [8]	AUC of dose-response viability curve [9]	AUC of dose-response viability curve [10]	AUC of dose-response viability curve [11]	AUC of dose-response viability curve [12]	AUC of dose-response viability curve [13]	AUC of dose-response viability curve [14]	AUC of dose-response viability curve [15]	AUC of dose-response viability curve [16]	minimum viability across doses [17]	minimum viability across doses [18]	minimum viability across doses [19]	minimum viability across doses [20]	minimum viability across doses [21]	minimum viability across doses [22]	minimum viability across doses [23]	minimum viability across doses [24]
0.0331 µM	0.0551 µM	CCC(=O)N1CCN(c2ccc(-n3c(=O)ccc4cnc5ccc(-c6cnc7ccccc7c6)cc5c43)cc2C(F)(F)F)CC1 [Torin 1]	> 10 µM	0.0719 µM	0.0767 µM	0.057 µM	0.0872 µM	0.0888 µM	1.33	1.54	1.71	1.13	1.32	1.56	1.39	1.81	0.116	0.101	0.00725	0.0432	0.0409	0.127	0.0473	0.0183
> 10 µM	< 0.003 µM	CC(C)(C)c1cc(/C=C(\C#N)C(N)=S)cc(C(C)(C)C)c1O [Tyrphostin AG 879 (AG 879)]	> 10 µM	> 10 µM	> 10 µM	> 10 µM	> 10 µM	> 10 µM	2.95	3.56	5.27	3.12	3.62	3.11	1.6	4.17	0.748	0.91	1.28	0.78	0.712	0.787	0.257	1.02
> 10 µM	> 10 µM	CCO.N#CC(=C(/N)Sc1ccccc1N)/C(C#N)=C(\N)Sc1ccccc1N [U0126-EtOH]	> 10 µM	> 10 µM	> 10 µM	> 10 µM	> 10 µM	> 10 µM	2.95	3.3	4	3.17	3.35	3.49	2.86	3.94	0.656	0.806	0.943	0.646	0.564	0.901	0.576	0.913
0.725 µM	0.159 µM	Cc1cc(Nc2cc(N3CCN(C)CC3)nc(Sc3ccc(NC(=O)C4CC4)cc3)n2)n[nH]1 [VX-680 (MK-0457, Tozasertib)]	> 10 µM	2.93 µM	> 10 µM	1.25 µM	1.48 µM	3.2 µM	2.96	2.67	3.24	2.35	2.54	2.57	1.85	3.1	0.548	0.386	0.577	0.214	0.241	0.2	0.133	0.254
> 10 µM	> 10 µM	NC(=O)c1ccc(N(C(N)=O)c2c(F)cccc2F)nc1-c1ccc(F)cc1F [VX-702]	> 10 µM	> 10 µM	> 10 µM	> 10 µM	> 10 µM	> 10 µM	2.79	3.44	3.75	3.03	3.27	3.56	2.9	3.72	0.674	0.946	0.806	0.656	0.76	0.944	0.661	0.924
1.57 µM	> 10 µM	COc1cc2c(Nc3ccc(Br)cc3F)ncnc2cc1OCC1CCN(C)CC1 [Vandetanib (Zactima)]	1.8 µM	5.26 µM	9.07 µM	5.12 µM	> 10 µM	> 10 µM	2.58	2.88	4.05	2.6	3.12	3.2	2.98	3.29	0.166	0.324	0.162	0.133	0.265	0.507	0.532	0.68
> 10 µM	> 10 µM	Cl.Cl.Clc1ccc(Nc2nnc(Cc3ccncc3)c3ccccc23)cc1 [Vatalanib dihydrochloride (PTK787)]	> 10 µM	> 10 µM	> 10 µM	> 10 µM	> 10 µM	> 10 µM	3.41	3.69	4.41	2.59	3.48	3.4	3.3	4.65	0.887	1.01	1.11	0.587	0.807	0.901	0.692	0.933
> 10 µM	5.39 µM	CCCS(=O)(=O)Nc1ccc(F)c(C(=O)c2c[nH]c3ncc(-c4ccc(Cl)cc4)cc23)c1F [Vemurafenib (PLX4032)]	> 10 µM	> 10 µM	> 10 µM	> 10 µM	> 10 µM	> 10 µM	3.05	2.31	3.42	3.08	3.43	3.05	2.45	3.73	0.647	0.884	0.7	0.634	0.76	0.764	0.271	0.93
0.689 µM	0.372 µM	c1cncc(CN2CCC(n3ncc4c(N5CCOCC5)nc(-c5ccc6[nH]ccc6c5)nc43)CC2)c1 [WAY-600]	0.744 µM	2.04 µM	1.15 µM	0.624 µM	1.9 µM	5.84 µM	2.23	2.73	3.04	2.32	2.23	2.51	1.79	4.54	0.0825	0.0444	0.00348	0.0599	0.0276	0.164	0.00124	0.0996
1.51 µM	> 10 µM	COc1cc2ncnc(Nc3ccc(O)c(Br)c3)c2cc1OC [WHI-P154]	2.48 µM	> 10 µM	> 10 µM	6.6 µM	> 10 µM	> 10 µM	2.33	3.27	6.61	2.49	3.22	3.48	3.09	5.3	0.435	0.553	1.1	0.27	0.351	0.789	0.594	0.955
6.7 µM	4.47 µM	C[C@H](NC(=O)/C(C#N)=C/c1cccc(Br)n1)c1ccccc1 [WP1066]	> 10 µM	5.25 µM	7.86 µM	8.92 µM	> 10 µM	> 10 µM	3.62	3.44	4.12	3.23	3.38	3.23	3.07	4.19	0.932	0.0246	0.00632	0.13	0.371	0.581	0.015	0.986
4.37 µM	1.54 µM	CCC[C@H](NC(=O)/C(C#N)=C/c1cccc(Br)n1)c1ccccc1 [WP1130]	4.1 µM	4.25 µM	8.04 µM	4.52 µM	4.46 µM	5.12 µM	2.56	3.17	3.72	3.26	3.18	2.97	2.24	3.33	0.0704	0.0147	0.0144	0.00429	0.0261	0.0172	0.00591	0.0682
0.611 µM	0.476 µM	COC(=O)Nc1ccc(-c2nc(N3CCOCC3)c3cnn(C4CCN(C(=O)OC)CC4)c3n2)cc1 [WYE-354]	1.57 µM	2.27 µM	2.57 µM	1.26 µM	1.89 µM	6.59 µM	2.35	2.75	3.63	2.21	2.49	2.54	1.9	3.73	0.293	0.165	0.0127	0.167	0.127	0.274	0.346	0.409
0.551 µM	1.48 µM	COC(=O)Nc1ccc(-c2nc(N3CCOCC3)c3cnn(C4CCN(Cc5cccnc5)CC4)c3n2)cc1 [WYE-687]	0.501 µM	1.59 µM	0.581 µM	0.577 µM	0.996 µM	4.61 µM	2.1	2.67	2.83	2.34	2.23	2.45	2.92	3.76	0.0981	0.184	0.00593	0.0636	0.075	0.141	0.441	0.351
0.496 µM	1.45 µM	C=CC(=O)Nc1cccc(Oc2nc(Nc3ccc(N4CCN(C)CC4)cc3)ncc2Cl)c1 [WZ3146]	0.504 µM	1.9 µM	2.6 µM	0.958 µM	2.34 µM	9.89 µM	2.07	2.71	3.76	2.34	2.62	2.85	2.27	3.49	0.0399	0.146	0.0177	0.0569	0.0135	0.0769	0.046	0.452
0.845 µM	> 10 µM	C=CC(=O)Nc1cccc(Oc2nc(Nc3ccc(N4CCN(C)CC4)cc3OC)ncc2Cl)c1 [WZ4002]	1.19 µM	> 10 µM	8.03 µM	3.38 µM	4.51 µM	> 10 µM	2.42	2.97	3.99	2.38	2.96	2.87	2.59	4.01	0.0574	0.576	0.0165	0.0645	0.385	0.151	0.547	0.796
1.28 µM	2.91 µM	C=CC(=O)Nc1cccc(Sc2nc(Nc3ccc(N4CCN(C)CC4)cc3)ncc2Cl)c1 [WZ8040]	2.09 µM	2.96 µM	8.21 µM	2.31 µM	4.06 µM	9.25 µM	2.42	2.81	3.39	2.45	2.51	2.85	2.46	3.77	0.024	0.0235	0.0196	0.0112	0.00227	0.00541	0.00441	0.282

SMILES	GI50, drug alone [4]	GI50, drug alone [7]	GI50, drug alone [1]	GI50, drug alone [2]	GI50, drug alone [3]	GI50, drug alone [5]	GI50, drug alone [6]	GI50, drug alone [8]	AUC of dose-response viability curve [9]	AUC of dose-response viability curve [10]	AUC of dose-response viability curve [11]	AUC of dose-response viability curve [12]	AUC of dose-response viability curve [13]	AUC of dose-response viability curve [14]	AUC of dose-response viability curve [15]	AUC of dose-response viability curve [16]	minimum viability across doses [17]	minimum viability across doses [18]	minimum viability across doses [19]	minimum viability across doses [20]	minimum viability across doses [21]	minimum viability across doses [22]	minimum viability across doses [23]	minimum viability across doses [24]
COC[C@H]1OC(=O)c2coc3c2[C@@]1(C)C1=C(C3=O)[C@@H]2CCC(=O)[C@@]2(C)C[C@@H]1OC(C)=O [Wortmannin]	0.0981 µM	0.0493 µM	> 10 µM	> 10 µM	> 10 µM	2.42 µM	0.0835 µM	0.0833 µM	3.1	3.15	2.58	2.78	2.45	2.78	1.99	3.03	0.725	0.55	0.643	0.426	0.301	0.387	0.00957	0.421
